Measured values taken from article PMC5218480 (PLoS ONE, 2017).

Tested on: MV-4-11 cells
Assay: Gene expression microarray analysis (Affymetrix PrimeView) and GSEA
Assay type: cell-based, human
Design: RFU PODN (11730768_x_at) / Fold change /veh PODN (11730768_x_at) / RFU LINC00158 (11744669_a_at) / Fold change /veh LINC00158 (11744669_a_at) / RFU DUSP10 (11751237_a_at) / Fold change /veh DUSP10 (11751237_a_at) / RFU ID3 (11757404_x_at) / Fold change /veh ID3 (11757404_x_at) / RFU PLEKHG5 (11737974_s_at) / Fold change /veh PLEKHG5 (11737974_s_at) / RFU LRRC4B (11730491_at) / Fold change /veh LRRC4B (11730491_at) / RFU GIMAP4 (11747438_a_at) / Fold change /veh GIMAP4 (11747438_a_at) / RFU KRT8 (11758183_x_at) / Fold change /veh KRT8 (11758183_x_at) / RFU CNN1 (11734310_a_at) / Fold change /veh CNN1 (11734310_a_at) / RFU VPS37D (11726825_at) / Fold change /veh VPS37D (11726825_at) / RFU C10orf10 (11716522_x_at) / Fold change /veh C10orf10 (11716522_x_at) / RFU KIR2DL2 /// KIR2DL4 /// KIR2DL5A /// KIR2DL5B /// KIR2DS1 /// KIR2DS2 /// KIR2DS3 /// KIR2DS4 /// KIR3DL3 /// KIR3DL3 /// KIR3DS1 (11738374_at) / Fold change /veh KIR2DL2 /// KIR2DL4 /// KIR2DL5A /// KIR2DL5B /// KIR2DS1 /// KIR2DS2 /// KIR2DS3 /// KIR2DS4 /// KIR3DL3 /// KIR3DL3 /// KIR3DS1 (11738374_at) / RFU C1QL1 (11718748_at) / Fold change /veh C1QL1 (11718748_at) / RFU TMPRSS4 (11747572_a_at) / Fold change /veh TMPRSS4 (11747572_a_at) / RFU HAMP (11756126_x_at) / Fold change /veh HAMP (11756126_x_at) / RFU RNFT2 (11725882_a_at) / Fold change /veh RNFT2 (11725882_a_at) / RFU NR4A2 (11747474_a_at) / Fold change /veh NR4A2 (11747474_a_at) / RFU ABCC12 (11746883_a_at) / Fold change /veh ABCC12 (11746883_a_at) / RFU TMEM136 (11760407_x_at) / Fold change /veh TMEM136 (11760407_x_at) / RFU CLDN22 /// WWC2 (11732394_at) / Fold change /veh CLDN22 /// WWC2 (11732394_at) / RFU HLA-DPB1 (11760878_x_at) / Fold change /veh HLA-DPB1 (11760878_x_at) / RFU SPINT1 (11716480_a_at) / Fold change /veh SPINT1 (11716480_a_at) / RFU GAP43 (11754022_s_at) / Fold change /veh GAP43 (11754022_s_at) / RFU A4GNT (11735810_at) / Fold change /veh A4GNT (11735810_at) / RFU PRB3 (11715151_x_at) / Fold change /veh PRB3 (11715151_x_at) / RFU TUBB4B (11761932_at) / Fold change /veh TUBB4B (11761932_at) / RFU CAPN14 (11732068_a_at) / Fold change /veh CAPN14 (11732068_a_at) / RFU TMCC2 (11721928_a_at) / Fold change /veh TMCC2 (11721928_a_at) / RFU IRGQ (11745062_a_at) / Fold change /veh IRGQ (11745062_a_at) / RFU FAM174B (11720279_a_at) / Fold change /veh FAM174B (11720279_a_at) / RFU TMPRSS4 (11748680_a_at) / Fold change /veh TMPRSS4 (11748680_a_at) / RFU FAM212B (11763350_a_at) / Fold change /veh FAM212B (11763350_a_at) / RFU PLEKHG5 (11743358_a_at) / Fold change /veh PLEKHG5 (11743358_a_at) / RFU ZSCAN30 (11745921_a_at) / Fold change /veh ZSCAN30 (11745921_a_at) / RFU CMKLR1 (11741424_a_at) / Fold change /veh CMKLR1 (11741424_a_at) / RFU LOC101060620 /// MAPK8IP1 (11723275_at) / Fold change /veh LOC101060620 /// MAPK8IP1 (11723275_at) / RFU SPTSSB (11747773_x_at) / Fold change /veh SPTSSB (11747773_x_at) / RFU PRSS12 (11739890_at) / Fold change /veh PRSS12 (11739890_at) / RFU BIN1 (11741810_x_at) / Fold change /veh BIN1 (11741810_x_at) / RFU WNT11 (11732464_a_at) / Fold change /veh WNT11 (11732464_a_at) / RFU C10orf10 (11716521_a_at) / Fold change /veh C10orf10 (11716521_a_at) / RFU C5orf56 (11738089_at) / Fold change /veh C5orf56 (11738089_at) / RFU CYB561 (11721691_x_at) / Fold change /veh CYB561 (11721691_x_at) / RFU ANKRD19P (11752326_a_at) / Fold change /veh ANKRD19P (11752326_a_at) / RFU OR2T12 /// OR2T33 /// OR2T8 (11738714_s_at) / Fold change /veh OR2T12 /// OR2T33 /// OR2T8 (11738714_s_at) / RFU VCAN (11748164_a_at) / Fold change /veh VCAN (11748164_a_at) / RFU JSRP1 (11732532_at) / Fold change /veh JSRP1 (11732532_at) / RFU KRTAP10-11 (11738290_x_at) / Fold change /veh KRTAP10-11 (11738290_x_at) / RFU MYO3A (11730013_a_at) / Fold change /veh MYO3A (11730013_a_at) / RFU EBF3 (11725865_a_at) / Fold change /veh EBF3 (11725865_a_at) / RFU CAMK2N1 (11719241_x_at) / Fold change /veh CAMK2N1 (11719241_x_at) / RFU C5orf56 (11738088_a_at) / Fold change /veh C5orf56 (11738088_a_at) / RFU OLFML3 (11715873_a_at) / Fold change /veh OLFML3 (11715873_a_at) / RFU LOC100653217 /// NTM (11731650_a_at) / Fold change /veh LOC100653217 /// NTM (11731650_a_at) / RFU MAPK11 (11762145_a_at) / Fold change /veh MAPK11 (11762145_a_at) / RFU FIZ1 (11724087_x_at) / Fold change /veh FIZ1 (11724087_x_at) / RFU OASL (11726364_x_at) / Fold change /veh OASL (11726364_x_at) / RFU SOX15 (11748057_x_at) / Fold change /veh SOX15 (11748057_x_at) / RFU CD79A (11719716_a_at) / Fold change /veh CD79A (11719716_a_at) / RFU HIST1H1D (11736915_at) / Fold change /veh HIST1H1D (11736915_at) / RFU CASKIN2 (11723855_a_at) / Fold change /veh CASKIN2 (11723855_a_at) / RFU LOC730098 (11760151_x_at) / Fold change /veh LOC730098 (11760151_x_at) / RFU OR4N2 (11742367_at) / Fold change /veh OR4N2 (11742367_at) / RFU PRRT2 (11749266_a_at) / Fold change /veh PRRT2 (11749266_a_at) / RFU SNX32 (11753110_a_at) / Fold change /veh SNX32 (11753110_a_at) / RFU CDHR5 (11726645_a_at) / Fold change /veh CDHR5 (11726645_a_at) / RFU RCAN1 (11760418_a_at) / Fold change /veh RCAN1 (11760418_a_at) / RFU FAM167A (11723789_a_at) / Fold change /veh FAM167A (11723789_a_at) / RFU FAM26E (11764081_at) / Fold change /veh FAM26E (11764081_at) / RFU ISYNA1 (11749810_s_at) / Fold change /veh ISYNA1 (11749810_s_at) / RFU ACY1 (11761880_at) / Fold change /veh ACY1 (11761880_at) / RFU 11764098_at / Fold change /veh 11764098_at / RFU SAMD14 (11745864_x_at) / Fold change /veh SAMD14 (11745864_x_at) / RFU NPB (11741838_a_at) / Fold change /veh NPB (11741838_a_at) / RFU TMPRSS6 (11731388_a_at) / Fold change /veh TMPRSS6 (11731388_a_at) / RFU KRTAP10-2 (11738614_at) / Fold change /veh KRTAP10-2 (11738614_at) / RFU ARHGAP8 /// PRR5-ARHGAP8 (11727945_x_at) / Fold change /veh ARHGAP8 /// PRR5-ARHGAP8 (11727945_x_at) / RFU KRTAP5-7 /// NADSYN1 (11734609_at) / Fold change /veh KRTAP5-7 /// NADSYN1 (11734609_at) / RFU RASL12 (11751679_a_at) / Fold change /veh RASL12 (11751679_a_at) / RFU CDKN2B (11736163_a_at) / Fold change /veh CDKN2B (11736163_a_at) / RFU PRF1 (11729649_at) / Fold change /veh PRF1 (11729649_at) / RFU, ZNF638 /// ZNF638-IT1 / Fold change vs veh, ZNF638 /// ZNF638-IT1 / RFU, PANK3 / Fold change vs veh, PANK3 / RFU, SH3YL1 / Fold change vs veh, SH3YL1 / RFU, ZEB2 / Fold change vs veh, ZEB2 / RFU, NRIP1 / Fold change vs veh, NRIP1 / RFU, PTTG1IP / Fold change vs veh, PTTG1IP / RFU, CAPN2 / Fold change vs veh, CAPN2 / RFU, MED14 / Fold change vs veh, MED14 / RFU, SNORA58 / Fold change vs veh, SNORA58 / RFU, C1orf63 / Fold change vs veh, C1orf63 / RFU, LRRFIP1 / Fold change vs veh, LRRFIP1 / RFU, NDUFAF7 / Fold change vs veh, NDUFAF7 / RFU, SLC12A2 / Fold change vs veh, SLC12A2 / RFU, IBTK / Fold change vs veh, IBTK / RFU, ESF1 / Fold change vs veh, ESF1 / Fold change vs veh, TMEM50B / RFU, TAOK1 / Fold change vs veh, TAOK1 / RFU, ACBD3 / Fold change vs veh, ACBD3 / RFU, TMA16 / Fold change vs veh, TMA16 / RFU, RWDD3 / Fold change vs veh, RWDD3 / RFU, BCAT1 / Fold change vs veh, BCAT1 / RFU, EDEM3 / Fold change vs veh, EDEM3 / RFU, TMEM33 / Fold change vs veh, TMEM33 / RFU, WDR75 / Fold change vs veh, WDR75 / RFU, AHCTF1 / Fold change vs veh, AHCTF1 / RFU, TFRC / Fold change vs veh, TFRC / RFU, ZDHHC17 / Fold change vs veh, ZDHHC17 / RFU, NOM1 / Fold change vs veh, NOM1 / RFU, ARL8B / Fold change vs veh, ARL8B / RFU, ZBTB11 / Fold change vs veh, ZBTB11 / RFU, TAMM41 / Fold change vs veh, TAMM41 / RFU, KIAA1704 /// LOC100996395 / Fold change vs veh, KIAA1704 /// LOC100996395 / RFU, ING1 / Fold change vs veh, ING1 / RFU, TRMT61B / Fold change vs veh, TRMT61B / RFU, FUBP3 / Fold change vs veh, FUBP3 / RFU, TP53 / Fold change vs veh, TP53 / RFU, TNKS2 / Fold change vs veh, TNKS2 / RFU, ZFP14 / Fold change vs veh, ZFP14 / RFU, ACTR2 / Fold change vs veh, ACTR2 / RFU, PPP3R1 / Fold change vs veh, PPP3R1 / RFU, PIK3R1 / Fold change vs veh, PIK3R1 / RFU, HNRNPA1 / Fold change vs veh, HNRNPA1 / RFU, RNF170 / Fold change vs veh, RNF170 / RFU, ZNF28 / Fold change vs veh, ZNF28 / RFU, RNGTT / Fold change vs veh, RNGTT / RFU, OGT / Fold change vs veh, OGT / RFU, BRD1 / Fold change vs veh, BRD1 / RFU, MARS / Fold change vs veh, MARS / RFU, ZNF655 / Fold change vs veh, ZNF655 / RFU, FAHD1 / Fold change vs veh, FAHD1 / RFU, BDP1 / Fold change vs veh, BDP1 / RFU, LRRCC1 / Fold change vs veh, LRRCC1 / RFU, ARID1A / Fold change vs veh, ARID1A / RFU, ZNF146 / Fold change vs veh, ZNF146 / RFU, ZNF330 / Fold change vs veh, ZNF330 / RFU, GPN3 / Fold change vs veh, GPN3 / RFU, C9orf123 / Fold change vs veh, C9orf123 / RFU, N4BP2L2 / Fold change vs veh, N4BP2L2 / RFU, ARFIP1 / Fold change vs veh, ARFIP1 / RFU, FAM179B / Fold change vs veh, FAM179B / RFU, BCL10 / Fold change vs veh, BCL10 / RFU, UHRF1BP1L / Fold change vs veh, UHRF1BP1L / RFU, BET1 / Fold change vs veh, BET1 / RFU, CNOT2 / Fold change vs veh, CNOT2 / RFU, ZNF268 / Fold change vs veh, ZNF268 / Fold change vs veh, ZNF507 / RFU, DGCR2 / Fold change vs veh, DGCR2 / RFU, WDSUB1 / Fold change vs veh, WDSUB1 / Fold change vs veh, HSP90B1 /// MIR3652 / RFU, ADSS / Fold change vs veh, ADSS / RFU, GK / Fold change vs veh, GK / RFU, ZNF148 / Fold change vs veh, ZNF148 / RFU, TAF9 / Fold change vs veh, TAF9 / RFU, SLC1A5 / Fold change vs veh, SLC1A5 / RFU, SLMO2 / Fold change vs veh, SLMO2 / RFU, ABCC4 / Fold change vs veh, ABCC4 / RFU, LOC101060439 /// RAP1B / Fold change vs veh, LOC101060439 /// RAP1B / RFU, RFX7 / Fold change vs veh, RFX7 / RFU, GTPBP10 / Fold change vs veh, GTPBP10 / RFU, CNEP1R1 / Fold change vs veh, CNEP1R1 / RFU, BIVM-ERCC5 /// ERCC5 / Fold change vs veh, BIVM-ERCC5 /// ERCC5 / RFU, ILF3 / Fold change vs veh, ILF3 / RFU 11762660_at / Fold change /veh 11762660_at / RFU VCAN (11757783_s_at) / Fold change /veh VCAN (11757783_s_at) / RFU DDX43 (11728927_at) / Fold change /veh DDX43 (11728927_at) / RFU KRT8 (11758188_x_at) / Fold change /veh KRT8 (11758188_x_at) / RFU NKD1 (11759106_at) / Fold change /veh NKD1 (11759106_at) / RFU SRD5A1 (11742802_a_at) / Fold change /veh SRD5A1 (11742802_a_at) / RFU TPSAB1 /// TPSB2 (11721975_s_at) / Fold change /veh TPSAB1 /// TPSB2 (11721975_s_at) / RFU GSTM3 (11746129_a_at) / Fold change /veh GSTM3 (11746129_a_at) / RFU IL23R (11737362_x_at) / Fold change /veh IL23R (11737362_x_at) / RFU TMEM51 (11727254_a_at) / Fold change /veh TMEM51 (11727254_a_at) / RFU PIWIL2 (11732686_x_at) / Fold change /veh PIWIL2 (11732686_x_at) / RFU ORM1 (11744905_x_at) / Fold change /veh ORM1 (11744905_x_at) / RFU CCDC152 (11743942_at) / Fold change /veh CCDC152 (11743942_at) / RFU ECM1 (11717891_a_at) / Fold change /veh ECM1 (11717891_a_at) / RFU IL23R (11748794_a_at) / Fold change /veh IL23R (11748794_a_at) / RFU TNFAIP8L3 (11732012_x_at) / Fold change /veh TNFAIP8L3 (11732012_x_at) / RFU MBOAT4 (11741988_at) / Fold change /veh MBOAT4 (11741988_at) / RFU 11764193_at / Fold change /veh 11764193_at / RFU TMEM53 (11763286_at) / Fold change /veh TMEM53 (11763286_at) / RFU MAGEB2 (11727129_at) / Fold change /veh MAGEB2 (11727129_at) / RFU TMEM200A (11744735_a_at) / Fold change /veh TMEM200A (11744735_a_at) / RFU CCDC152 (11751479_a_at) / Fold change /veh CCDC152 (11751479_a_at) / RFU FAM211A (11726209_a_at) / Fold change /veh FAM211A (11726209_a_at) / RFU RGS16 (11746705_a_at) / Fold change /veh RGS16 (11746705_a_at) / RFU VCAN (11755009_s_at) / Fold change /veh VCAN (11755009_s_at) / RFU RHOB (11743442_s_at) / Fold change /veh RHOB (11743442_s_at) / RFU RGS16 (11720943_a_at) / Fold change /veh RGS16 (11720943_a_at) / RFU RGS16 (11720944_at) / Fold change /veh RGS16 (11720944_at) / RFU, VPS4B / Fold change vs veh, VPS4B / RFU, CREB1 / Fold change vs veh, CREB1 / RFU, DNAJC13 / Fold change vs veh, DNAJC13 / RFU, GNAQ / Fold change vs veh, GNAQ / RFU, CDK5R1 / Fold change vs veh, CDK5R1 / RFU, ZRANB3 / Fold change vs veh, ZRANB3 / RFU, CUL4A / Fold change vs veh, CUL4A / RFU, CCNY / Fold change vs veh, CCNY / RFU, UFL1 / Fold change vs veh, UFL1 / RFU, COG3 / Fold change vs veh, COG3 / RFU, DIAPH2 / Fold change vs veh, DIAPH2 / RFU, SKA2 / Fold change vs veh, SKA2 / RFU, AFF3 / Fold change vs veh, AFF3 / RFU, LMF1 / Fold change vs veh, LMF1 / RFU, IPO11 / Fold change vs veh, IPO11 / RFU, DFFB / Fold change vs veh, DFFB / RFU, FOXP1 / Fold change vs veh, FOXP1 / RFU, CARD8 / Fold change vs veh, CARD8 / RFU, STRN3 / Fold change vs veh, STRN3 / RFU, ADK / Fold change vs veh, ADK / RFU, RASSF2 / Fold change vs veh, RASSF2 / RFU, WIPF1 / Fold change vs veh, WIPF1 / RFU, LARP1B / Fold change vs veh, LARP1B / RFU, RASA1 / Fold change vs veh, RASA1 / RFU, RB1 / Fold change vs veh, RB1 / RFU, PPFIA1 / Fold change vs veh, PPFIA1 / RFU, MAT2A / Fold change vs veh, MAT2A / RFU, CCT5 / Fold change vs veh, CCT5 / RFU, WDR92 / Fold change vs veh, WDR92 / RFU, CUX1 / Fold change vs veh, CUX1 / RFU, TTC7A / Fold change vs veh, TTC7A / RFU, TMEM135 / Fold change vs veh, TMEM135 / RFU, DEPTOR / Fold change vs veh, DEPTOR / RFU, CPM / Fold change vs veh, CPM / RFU, DNAJB6 / Fold change vs veh, DNAJB6 / RFU, CACNA2D3 / Fold change vs veh, CACNA2D3 / RFU, DTX4 / Fold change vs veh, DTX4 / RFU, TFCP2 / Fold change vs veh, TFCP2 / RFU, GMCL1 /// GMCL1P1 / Fold change vs veh, GMCL1 /// GMCL1P1 / RFU, AEBP2 / Fold change vs veh, AEBP2 / RFU, SNHG1 /// SNORD22 /// SNORD25 /// SNORD26 /// SNORD27 /// SNORD28 /// SNORD29 /// SNORD31 / Fold change vs veh, SNHG1 /// SNORD22 /// SNORD25 /// SNORD26 /// SNORD27 /// SNORD28 /// SNORD29 /// SNORD31 / Fold change (Aza/veh), C12orf56 (ProbeSet 11735607_a_at) / Fold change (ACY-1035/veh), C12orf56 (ProbeSet 11735607_a_at) / Fold change (Aza/veh), FGFR1OP (ProbeSet 11751329_s_at) / Fold change (ACY-1035/veh), FGFR1OP (ProbeSet 11751329_s_at) / Fold change (Aza/veh), VPS36 (ProbeSet 11739960_a_at) / Fold change (ACY-1035/veh), VPS36 (ProbeSet 11739960_a_at) / RFU SYPL1 (11715823_x_at) / Fold change /veh SYPL1 (11715823_x_at) / RFU IGFBP7 (11715501_s_at) / Fold change /veh IGFBP7 (11715501_s_at) / RFU REEP3 (11722064_at) / Fold change /veh REEP3 (11722064_at) / RFU IGLL1 (11728026_x_at) / Fold change /veh IGLL1 (11728026_x_at): dose or concentration left out as unconfirmed
Conditions: ProbeSet 11741311_a_at; LIST B

Nc1ncn([C@@H]2O[C@H](CO)[C@@H](O)[C@H]2O)c(=O)n1 [azacitidine]
RFU, ZNF655: 32.83 RFU
